According to patent publication US20100197584A1, “USE OF CURCUMIN TO BLOCK BRAIN TUMOR FORMATION IN MICE” (Research Foundations of the City University of- New York, priority 2007, published 2010):

Tested on: normal (non-tumor) brain cells
Assay: Normal brain cell viability (MTT on brain sections)
Format: in vivo
Conditions: brain sections of untreated mice treated with 1 mM in PBS for one hour; positive control for cell death (FIG. 10)
Method: In each experiment, three mice were injected with 200 μl of PBS containing 3% DMSO, and three mice were injected with 200 μl of 667 μM curcumin (as described earlier) through the tail vein on three consecutive days by the method described above. On the fourth day, the mice were perfused with PBS through the heart, and the brains sectioned into 400-μm sections. Similar brain sections were also made from untreated mice which were then treated with 1 mM H2O2 in PBS for one hour, followed by incubation in H2O2-free DTM for three hours. These samples were used as a positive control for cell death.
The sections from each mouse were placed in 400 μl PBS in one well of a 48-well plate (i.e. three wells for three mice) and then treated with 200 μl of MTT (5 mg/ml) per well with gentle mixing at 37° C. for about 2 hours. Subsequently, 800 μl of the lysis buffer was added to each well, and the plate was sealed and incubated overnight at 37° C. with gentle mixing. Three 100-μl portions of the tissue solution obtained were next transferred to three respective wells of a 96-well plate (i.e. three wells per mouse and nine wells for three mice in one group) and absorbance at 570 nm was measured using a 96-well multi scanner auto-reader. Results obtained were normalized to protein levels and then expressed as percent of carrier-treated samples.

Compound: OO [H2O2, reference compound]
- cell viability in brain slices (MTT activity): dramatic decrease
